# From US20260327232A1, “Heteroaryl Compounds as Ligand Directed Degraders of IRAK4” (Celgene Corporation, priority 2023, published 2026)
# Counter-ions that a name gives are not always drawn.
# Experiments:
# IRAK4 [1] = target: T1, IRAK4 (Homo sapiens, UniProt Q9NWZ3); experiment: IRAK4 PhosphoSens Biochemical Assay (BIOCHEM); details: 200 μM ATP, 10 μM peptide substrate AQT0326, 1 nM IRAK4, room temperature, 240 minutes
# T1 sequence (Q9NWZ3 1-460): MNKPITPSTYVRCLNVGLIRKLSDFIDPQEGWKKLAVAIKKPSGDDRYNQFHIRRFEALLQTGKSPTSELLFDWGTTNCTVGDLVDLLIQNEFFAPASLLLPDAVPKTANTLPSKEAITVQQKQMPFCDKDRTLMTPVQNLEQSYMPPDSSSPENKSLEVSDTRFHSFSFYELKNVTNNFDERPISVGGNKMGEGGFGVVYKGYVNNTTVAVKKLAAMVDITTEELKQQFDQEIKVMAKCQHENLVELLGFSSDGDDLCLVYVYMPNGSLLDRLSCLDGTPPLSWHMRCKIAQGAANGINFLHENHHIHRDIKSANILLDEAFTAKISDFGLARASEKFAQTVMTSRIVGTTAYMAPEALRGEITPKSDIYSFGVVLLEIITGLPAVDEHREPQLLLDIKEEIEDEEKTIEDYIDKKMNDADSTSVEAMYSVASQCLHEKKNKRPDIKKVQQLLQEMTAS
# IRAK4 [2] = target: T1, IRAK4; experiment: ALE THP1 HTRF (IRAK4 in THP1 cell lysates, Homogeneous Time Resolved Fluorescence); format: cell-based; parameters: THP1 Homogeneous Time Resolved Fluorescence (ALE THP1 HTRF) Procedure; endogenous in cells; host or cells: THP1; details: THP1 cells
# Method: Cell culture media was prepared in a tissue culture hood in a sterile environment by adding 10% FBS and 1% Penicillin Streptomycin to 500 mL no phenol red RPMI 1640 media. The media was filtered through a Nalgene Bottle Top Filter and stored at 4° C.
# For Homogenous Time Resolved Fluorescence (HTRF) assays, a Cisbio HTRF kit was used, which included: Lysis Buffer #1 4×, Blocking Reagent #3 100×, 20× Antibody 1 (Anti-IRAK4 d2), 20× Antibody 2 (Anti-IRAK4 k), and Detection Buffer.
# 4× Lysis Buffer was stored at 4° C. For use as 1× Lysis buffer, the 4× solution was diluted with de-ionized water (distilled water, Gibco Cat. #15230279) and 100× Blocking Reagent in a 1:3:0.04 volume ratio.
# 20× Antibody Solution aliquots were stored in −80° C. and the Detection Buffer was stored in 4° C. For use as a 1× Antibody Solution, the 20× Antibody Solution aliquot was diluted with Detection Buffer in a 1:19 volume ratio.
# Cells were lysed at room temperature for 45 min with shaking. A BCA protein assay was performed and normalization was conducted to the desired total protein concentration with 1× lysis buffer. Next, 1× Antibody Solutions were prepared by adding 380 μL Detection Buffer to 20 μL 20× Antibody Solution aliquots and mixing well. 1× Antibody Solutions were combined 1:1 and briefly vortexed. For control wells, 20 μL 1× anti IRAK4-k Antibody Solution was saved. The 384-well plate (ProxiPlate-384 Plus, Perkin Elmer Cat. #6008289) was loaded by adding 4 μL of the mixed Antibody Solution to empty wells using a single channel repeater. Using a multi-channel repeater, 16 μL lysate was added per well, and any bubbles that were formed were popped with 20 μL pipette tips and Kimwipe edges. In column 10, triplicates of each control was prepared. In wells A10, B10, and C10, buffer control was prepared by adding 16 μL Lysis Buffer and 4 μL Detection Buffer. In wells D10, E10, and F10, cryptate control was prepared by adding 16 μL Lysis Buffer, 2 μL Detection Buffer, and 2 μL 1× anti IRAK4-k Antibody Solution. In wells G10, H10, and 110, a negative control was prepared by adding 16 μL Lysis Buffer and 4 μL mixed Antibody Solution. The plate was sealed with a clear seal and covered with an aluminum lid. The plate was spun down at 800 g for 5 min and incubated in the dark at room temperature overnight. The next day, the plate was spun down at 800 g for 5 min. The samples were analyzed by a plate reader (Envision, PerkinElmer) using the Desnor 384 HTRF program.
Compound,IC50 (IRAK4 [1]) [nM],EC50 (IRAK4 [2]) [nM]
Cn1nc(C2CCC(=O)NC2=O)c2ccc(NC3CCN(C(=O)[C@H]4CC[C@H](n5cc(NC(=O)c6cnn7ccc(N8C[C@H](N)C[C@@H](F)C8)nc67)c(C(F)F)n5)CC4)CC3)cc21 (some centres unmarked) [P-1],0.5,> 10000
"Cn1nc(C2CCC(=O)NC2=O)c2ccc(N3CCC(NC(=O)[C@H]4CC[C@H](n5cc(NC(=O)c6cnn7ccc(N8C[C@H](N)C[C@@H](F)C8)nc67)c(C(F)F)n5)CC4)CC3)cc21 (stereo partly drawn) [P-4, 5-((3R,5R)-3-amino-5-fluoropiperidin-1-yl)-N-(3-(difluoromethyl)-1-((1r,4r)-4-((1-(3-(2,6-dioxopiperidin-3-yl)-1-methyl-1H-indazol-6-yl)piperidin-4-yl)carbamoyl)cyclohexyl)-1H-pyrazol-4-yl)pyrazolo[1,5-a]pyrimidine-3-carboxamide hydrochloride]",< 0.5,5.6
Cn1nc(C2CCC(=O)NC2=O)c2cccc(N3CCC(NC(=O)[C@H]4CC[C@H](n5cc(NC(=O)c6cnn7ccc(N8C[C@H](N)C[C@@H](F)C8)nc67)c(C(F)F)n5)CC4)CC3)c21 (some centres unmarked) [P-6],< 0.5,5
"Cn1nc(C2CCC(=O)NC2=O)c2cccc(NC3CCN(CCC4CCC(n5cc(NC(=O)c6cnn7ccc(N8C[C@H](N)C[C@@H](F)C8)nc67)c(C(F)F)n5)CC4)CC3)c21 (stereo partly drawn) [P-7, N-[3-(difluoromethyl)-1-[4-[2-[4-[[3-(2,6-dioxo-3-piperidyl)-1-methyl-indazol-7-yl]amino]-1-piperidyl]ethyl]cyclohexyl]pyrazol-4-yl]-5-[(3R,5R)-3-amino-5-fluoro-1-piperidyl]pyrazolo[1,5-a]pyrimidine-3-carboxamide bis-HCl salt]",< 0.5,12
"Cn1nc(C2CCC(=O)NC2=O)c2cccc(NC3CCN(C(=O)[C@H]4CC[C@H](n5cc(NC(=O)c6cnn7ccc(N8C[C@H](N)C[C@@H](F)C8)nc67)c(C(F)F)n5)CC4)CC3)c21 (stereo partly drawn) [P-9, 5-((3R,5R)-3-amino-5-fluoropiperidin-1-yl)-N-(3-(difluoromethyl)-1-((1r,4r)-4-(4-((3-(2,6-dioxopiperidin-3-yl)-1-methyl-1H-indazol-7-yl)amino)piperidine-1-carbonyl)cyclohexyl)-1H-pyrazol-4-yl)pyrazolo[1,5-a]pyrimidine-3-carboxamide hydrochloride]",< 0.5,4
Cn1nc(C2CCC(=O)NC2=O)c2cccc(N3CCN(CCC4CCC(n5cc(NC(=O)c6cnn7ccc(N8C[C@H](N)C[C@@H](F)C8)nc67)c(C(F)F)n5)CC4)CC3)c21 (some centres unmarked) [P-11],< 0.5,17
Cn1nc(C2CCC(=O)NC2=O)c2ccc(NC3CC4(C3)CN(CC3CCC(n5cc(NC(=O)c6cnn7ccc(N8C[C@H](N)C[C@@H](F)C8)nc67)c(C(F)F)n5)CC3)C4)cc21 (some centres unmarked) [P-12],< 0.5,6
Cn1nc(C2CCC(=O)NC2=O)c2cccc(N3CCC(NC[C@H]4CC[C@H](n5cc(NC(=O)c6cnn7ccc(N8C[C@H](N)C[C@@H](F)C8)nc67)c(C(F)F)n5)CC4)CC3)c21 (some centres unmarked) [P-15],< 0.5,10
Cn1nc(C2CCC(=O)NC2=O)c2ccc(NC3CCN(CC[C@H]4CC[C@H](n5cc(NC(=O)c6cnn7ccc(N8C[C@H](N)C[C@@H](F)C8)nc67)c(C(F)F)n5)CC4)CC3)cc21 (some centres unmarked) [P-16],< 0.5,5
Cn1nc(C2CCC(=O)NC2=O)c2ccc(NC3CCN(C[C@H]4CC[C@H](n5cc(NC(=O)c6cnn7ccc(N8C[C@H](N)CC(F)(F)C8)nc67)c(C(F)F)n5)CC4)CC3)cc21 (some centres unmarked) [P-20],< 0.5,5
Cn1nc(C2CCC(=O)NC2=O)c2ccc(N[C@@H]3CCN(CC4CCC(n5cc(NC(=O)c6cnn7ccc(N8C[C@H](N)C[C@@H](F)C8)nc67)c(C(F)F)n5)CC4)C[C@H]3F)cc21 (some centres unmarked) [P-22],< 0.5,5
Cn1nc(C2CCC(=O)NC2=O)c2ccc(N[C@H]3CCN(C[C@H]4CC[C@H](n5cc(NC(=O)c6cnn7ccc(N8C[C@H](N)C[C@@H](F)C8)nc67)c(C(F)F)n5)CC4)C[C@H]3F)cc21 (some centres unmarked) [P-23],< 0.5,4
"CN(C[C@H]1CC[C@H](n2cc(NC(=O)c3cnn4ccc(N5CCOCC5)nc34)c(C(F)F)n2)CC1)C1CCN(c2ccc3c(C4CCC(=O)NC4=O)nn(C)c3c2)CC1 (some centres unmarked) [P-29, N-[3-(Difluoromethyl)-1-[4-[[[1-[3-(2,6-dioxo-3-piperidyl)-1-methyl-indazol-6-yl]-4-piperidyl]-methyl-amino]methyl]cyclohexyl]pyrazol-4-yl]-5-morpholino-pyrazolo[1,5-a]pyrimidine-3-carboxamide]",< 0.5,> 10000
CN(c1ccc2c(C3CCC(=O)NC3=O)nn(C)c2c1)C1CCN(C[C@H]2CC[C@H](n3cc(NC(=O)c4cnn5ccc(N6CCOCC6)nc45)c(C(F)F)n3)CC2)CC1 (some centres unmarked) [P-32],< 0.5,1
Cc1ccc(Nc2ccn3ncc(C(=O)Nc4cn([C@H]5CC[C@H](CN(C)C6CCN(c7ccc8c(C9CCC(=O)NC9=O)nn(C)c8c7)CC6)CC5)nc4C(F)F)c3n2)cn1 (some centres unmarked) [P-48],–,3510

# Results, then the molecule that gave them:
IC50 (IRAK4 [1]) [nM],EC50 (IRAK4 [2]) [nM],Compound
< 0.5,5,"Cn1nc(C2CCC(=O)NC2=O)c2ccc(N3CCC(NC[C@H]4CC[C@H](n5cc(NC(=O)c6cnn7ccc(N8C[C@H](N)C[C@@H](F)C8)nc67)c(C(F)F)n5)CC4)CC3)cc21 (stereo partly drawn) [P-5, 5-((3R,5R)-3-Amino-5-fluoropiperidin-1-yl)-N-(3-(difluoromethyl)-1-((1r,4r)-4-(((1-(3-(2,6-dioxopiperidin-3-yl)-1-methyl-1H-indazol-6-yl)piperidin-4-yl)amino)methyl)cyclohexyl)-1H-pyrazol-4-yl)pyrazolo[1,5-a]pyrimidine-3-carboxamide dihydrochloride]"
< 0.5,7,Cn1nc(C2CCC(=O)NC2=O)c2cccc(N3CCN(C[C@H]4CC[C@H](n5cc(NC(=O)c6cnn7ccc(N8C[C@H](N)C[C@@H](F)C8)nc67)c(C(F)F)n5)CC4)CC3)c21 (some centres unmarked) [P-8]
< 0.5,14,Cn1nc(C2CCC(=O)NC2=O)c2ccc(N3CCN(CC[C@H]4CC[C@H](n5cc(NC(=O)c6cnn7ccc(N8C[C@H](N)C[C@@H](F)C8)nc67)c(C(F)F)n5)CC4)CC3)cc21 (some centres unmarked) [P-10]
< 0.5,1,Cn1nc(C2CCC(=O)NC2=O)c2ccc(NC3CN(C[C@H]4CC[C@H](n5cc(NC(=O)c6cnn7ccc(N8C[C@H](N)C[C@@H](F)C8)nc67)c(C(F)F)n5)CC4)C3)cc21 (some centres unmarked) [P-13]
< 0.5,> 10000,Cn1nc(C2CCC(=O)NC2=O)c2ccc(N3CCN(C[C@H]4CC[C@H](n5cc(NC(=O)c6cnn7ccc(N8C[C@H](N)C[C@@H](F)C8)nc67)c(C(F)F)n5)CC4)CC3)cc21 (some centres unmarked) [P-14]
< 0.5,1,Cn1nc(C2CCC(=O)NC2=O)c2ccc(C(=O)N3CCN(C[C@H]4CC[C@H](n5cc(NC(=O)c6cnn7ccc(N8C[C@H](N)C[C@@H](F)C8)nc67)c(C(F)F)n5)CC4)CC3)cc21 (some centres unmarked) [P-17]
< 0.5,5,Cn1nc(C2CCC(=O)NC2=O)c2ccc(NC3CCN(CC4CCC(n5cc(NC(=O)c6cnn7ccc(N8C[C@H](N)C[C@H](F)C8)nc67)c(C(F)F)n5)CC4)CC3)cc21 (some centres unmarked) [P-19]
< 0.5,11,Cn1nc(C2CCC(=O)NC2=O)c2ccc(OC3CCN(C[C@H]4CC[C@H](n5cc(NC(=O)c6cnn7ccc(N8C[C@H](N)C[C@@H](F)C8)nc67)c(C(F)F)n5)CC4)CC3)cc21 (some centres unmarked) [P-26]
< 0.5,3,CN(c1ccc2c(C3CCC(=O)NC3=O)nn(C)c2c1)C1CCN(C[C@H]2CC[C@H](n3cc(NC(=O)c4cnn5ccc(N6C[C@H](N)C[C@@H](F)C6)nc45)c(C(F)F)n3)CC2)CC1 (some centres unmarked) [P-31]
